Reference: publication PMC2802337 (Prostaglandins, leukotrienes, and essential fatty acids, 2009)

Target: T1, 15-prostaglandin dehydrogenase/eicosanoid oxidoreductase (EOR) (Homo sapiens, UniProt P15428)
T1 sequence (P15428 1-266): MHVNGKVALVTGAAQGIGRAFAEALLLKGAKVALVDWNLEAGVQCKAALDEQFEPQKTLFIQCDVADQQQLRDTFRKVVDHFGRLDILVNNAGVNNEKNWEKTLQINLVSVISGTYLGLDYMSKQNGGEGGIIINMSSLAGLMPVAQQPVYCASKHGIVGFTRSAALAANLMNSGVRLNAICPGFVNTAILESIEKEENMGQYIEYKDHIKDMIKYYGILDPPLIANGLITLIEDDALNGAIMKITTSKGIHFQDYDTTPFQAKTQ
Test: spectrophotometric NADH formation at […] nm, initial rate of conversion
Format: biochemical

spectrophotometric NADH formation at 340 nm, initial rate of conversion: 3.1 µM/min
Compound: CCCCC[C@H](O)/C=C/C=C\C=C\C=C\[C@@H](O)[C@@H](O)CCCC(=O)O [LXA4]
